System: 388556-164-R-J1-PDC complex spheroid viability
Assay: Anticancer human tumor 388556-164-R-J1-PDC patient-derived colon adenocarcinoma cell line growth inhibition [RAS]
Conditions: for IC50: curve of first compound; for viability, T/C: stronger effect = lower value
Outline: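 Agents were tested in combination matrices in half-log decrements from a top concentration at or near clinical Cmax (10 microM if undetermined). Targets were multi-cell spheroids of tumour lines plus HUVEC and MSC stromal cells.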
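Further: spheroids exposed to compound for 7 days before readout.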
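Wherever viability, T/C is given: 100% = DMSO vehicle control luminescence.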

Compound `CCc1c2c(nc3ccc(O)cc13)-c1cc3c(c(=O)n1C2)COC(=O)[C@]3(O)CC` + CCn1c(-c2cc(N3CCN(C)CC3)cnc2C(C)OC)c2c3cc(ccc31)-c1csc(n1)CC(NC(=O)C1CC1C)C(=O)N1CCCC(N1)C(=O)OCC(C)(C)C2 has an IC50 (second compound 0.000949 µM) of 46.6 nM, an IC50 (second compound 0.003 µM) of 28.1 nM and an IC50 (second compound 0.00949 µM) of 19.6 nM. For the same compound, the IC50 (second compound 0.03 µM) was 7.33 nM, the IC50 (second compound 0.0949 µM) was under 0.949 nM and the IC50 (second compound 0.3 µM) was under 0.949 nM. The viability, T/C (second compound 0.000949 µM, first compound 0.000949 µM) was 90.3%, the viability, T/C (second compound 0.000949 µM, first compound 0.003 µM) was 89.5% and the viability, T/C (second compound 0.000949 µM, first compound 0.00949 µM) was 66.3%. It also gave a viability, T/C (second compound 0.000949 µM, first compound 0.03 µM) of 56%, a viability, T/C (second compound 0.000949 µM, first compound 0.0949 µM) of 42.1% and a viability, T/C (second compound 0.000949 µM, first compound 0.3 µM) of 23.5%. It also gave a viability, T/C (second compound 0.003 µM, first compound 0.000949 µM) of 89.9%, a viability, T/C (second compound 0.003 µM, first compound 0.003 µM) of 83.6% and a viability, T/C (second compound 0.003 µM, first compound 0.00949 µM) of 67.5%. For the same compound, the viability, T/C (second compound 0.003 µM, first compound 0.03 µM) was 46.3%, the viability, T/C (second compound 0.003 µM, first compound 0.0949 µM) was 36.4% and the viability, T/C (second compound 0.003 µM, first compound 0.3 µM) was 21.8%. For the same compound, the viability, T/C (second compound 0.00949 µM, first compound 0.000949 µM) was 82.2%, the viability, T/C (second compound 0.00949 µM, first compound 0.003 µM) was 78.4% and the viability, T/C (second compound 0.00949 µM, first compound 0.00949 µM) was 55.7%. The viability, T/C (second compound 0.00949 µM, first compound 0.03 µM) was 41.8%, the viability, T/C (second compound 0.00949 µM, first compound 0.0949 µM) was 36.5% and the viability, T/C (second compound 0.00949 µM, first compound 0.3 µM) was 18.7%. For the same compound, the viability, T/C (second compound 0.03 µM, first compound 0.000949 µM) was 58.2%, the viability, T/C (second compound 0.03 µM, first compound 0.003 µM) was 55.5% and the viability, T/C (second compound 0.03 µM, first compound 0.00949 µM) was 50.5%. For the same compound, the viability, T/C (second compound 0.03 µM, first compound 0.03 µM) was 37.8%, the viability, T/C (second compound 0.03 µM, first compound 0.0949 µM) was 30.2% and the viability, T/C (second compound 0.03 µM, first compound 0.3 µM) was 16.6%. It also gave a viability, T/C (second compound 0.0949 µM, first compound 0.000949 µM) of 44.3%, a viability, T/C (second compound 0.0949 µM, first compound 0.003 µM) of 39.1% and a viability, T/C (second compound 0.0949 µM, first compound 0.00949 µM) of 48.9%. The viability, T/C (second compound 0.0949 µM, first compound 0.03 µM) was 30.1%, the viability, T/C (second compound 0.0949 µM, first compound 0.0949 µM) was 25.9% and the viability, T/C (second compound 0.0949 µM, first compound 0.3 µM) was 14.3%. The viability, T/C (second compound 0.3 µM, first compound 0.000949 µM) was 32.4%, the viability, T/C (second compound 0.3 µM, first compound 0.003 µM) was 31.5% and the viability, T/C (second compound 0.3 µM, first compound 0.00949 µM) was 28.2%. The viability, T/C (second compound 0.3 µM, first compound 0.03 µM) was 30.1%, the viability, T/C (second compound 0.3 µM, first compound 0.0949 µM) was 21.2% and the viability, T/C (second compound 0.3 µM, first compound 0.3 µM) was 11.5%.
With `C=CC(=O)Nc1cc(Nc2nccc(-c3cn(C)c4ccccc34)n2)c(OC)cc1N(C)CCN(C)C` + CCn1c(-c2cccnc2C(C)OC)c2c3cc(ccc31)N1CCOC(CC(NC(=O)C(C(C)C)N(C)C(=O)C3(F)CCN(C(=O)C#CC(C)(C)N(C)C)CC3)C(=O)N3CCCC(N3)C(=O)OCC(C)(C)C2)C1 the IC50 (second compound 0.000949 µM) was over 1000 nM, the IC50 (second compound 0.003 µM) was over 1000 nM and the IC50 (second compound 0.00949 µM) was over 1000 nM. The IC50 (second compound 0.03 µM) was 974 nM, the IC50 (second compound 0.0949 µM) was 864 nM and the IC50 (second compound 0.3 µM) was 849 nM. The viability, T/C (second compound 0.000949 µM, first compound 0.00316 µM) was 98.7%, the viability, T/C (second compound 0.000949 µM, first compound 0.01 µM) was 93.3% and the viability, T/C (second compound 0.000949 µM, first compound 0.0316 µM) was 91.5%. The viability, T/C (second compound 0.000949 µM, first compound 0.1 µM) was 88.5%, the viability, T/C (second compound 0.000949 µM, first compound 0.316 µM) was 75.2% and the viability, T/C (second compound 0.000949 µM, first compound 1 µM) was 53.4%. For the same compound, the viability, T/C (second compound 0.003 µM, first compound 0.00316 µM) was 108%, the viability, T/C (second compound 0.003 µM, first compound 0.01 µM) was 108% and the viability, T/C (second compound 0.003 µM, first compound 0.0316 µM) was 101%. It also gave a viability, T/C (second compound 0.003 µM, first compound 0.1 µM) of 83.6%, a viability, T/C (second compound 0.003 µM, first compound 0.316 µM) of 73.8% and a viability, T/C (second compound 0.003 µM, first compound 1 µM) of 53.4%. For the same compound, the viability, T/C (second compound 0.00949 µM, first compound 0.00316 µM) was 105%, the viability, T/C (second compound 0.00949 µM, first compound 0.01 µM) was 107% and the viability, T/C (second compound 0.00949 µM, first compound 0.0316 µM) was 90.9%. The viability, T/C (second compound 0.00949 µM, first compound 0.1 µM) was 80.2%, the viability, T/C (second compound 0.00949 µM, first compound 0.316 µM) was 82.3% and the viability, T/C (second compound 0.00949 µM, first compound 1 µM) was 54.1%. For the same compound, the viability, T/C (second compound 0.03 µM, first compound 0.00316 µM) was 107%, the viability, T/C (second compound 0.03 µM, first compound 0.01 µM) was 96.2% and the viability, T/C (second compound 0.03 µM, first compound 0.0316 µM) was 101%. It also gave a viability, T/C (second compound 0.03 µM, first compound 0.1 µM) of 88.1%, a viability, T/C (second compound 0.03 µM, first compound 0.316 µM) of 70.6% and a viability, T/C (second compound 0.03 µM, first compound 1 µM) of 49.5%. The viability, T/C (second compound 0.0949 µM, first compound 0.00316 µM) was 105%, the viability, T/C (second compound 0.0949 µM, first compound 0.01 µM) was 108% and the viability, T/C (second compound 0.0949 µM, first compound 0.0316 µM) was 95.9%. The viability, T/C (second compound 0.0949 µM, first compound 0.1 µM) was 93.9%, the viability, T/C (second compound 0.0949 µM, first compound 0.316 µM) was 75% and the viability, T/C (second compound 0.0949 µM, first compound 1 µM) was 46%. For the same compound, the viability, T/C (second compound 0.3 µM, first compound 0.00316 µM) was 98.5%, the viability, T/C (second compound 0.3 µM, first compound 0.01 µM) was 89.3% and the viability, T/C (second compound 0.3 µM, first compound 0.0316 µM) was 89.5%. For the same compound, the viability, T/C (second compound 0.3 µM, first compound 0.1 µM) was 81.5%, the viability, T/C (second compound 0.3 µM, first compound 0.316 µM) was 69.4% and the viability, T/C (second compound 0.3 µM, first compound 1 µM) was 46.3%.

From PubChem BioAssay AID2060907 (Molecular Pharmacology Branch, DTP, NCI, 2025)
